Where two headings read alike, the source gives them in different places.
Key:
[1] = Oral toxicity (mortality) in the mouse, Table 1; type: in vivo; conditions: mouse, in vivo, po, Swiss mice, 14 days
Description: (§1) The mortality percentages caused by the products of the present invention administered orally to Swiss mice are shown in Table 1. The animals, free of specific pathological organism were housed in an air conditioned room from 24 to 48 hours before the start of the experiments. They were divided up into lots of 5 males and 5 females. With the animals unfed for 24 hours, the substances were administered intragastrically in a base of 6% gum arabic in a volume equal to 0.1 ml for 10 g of animal weight. The mortality was recorded at 14 days.
(§2) % of mortality as a function of the dose

phenylbenzoquinone (PBQ) = experiment: Analgesic activity using phenylbenzoquinone (PBQ) as noxious agent, Table 2; type: in vivo, male Swiss mouse; conditions: for inhibition in vivo at 100 mg/kg / inhibition in vivo at 200 mg/kg / inhibition in vivo at 50 mg/kg: Mus musculus
Description: The analgesic activity was determined with the male Swiss mouse using phenylbenzoquinone (PBQ) (a variation of the method of Siegmund et al, Proc. Soc. Exp. Med., […], 95, 729-31) as the noxious agent. Twenty-eightminutes after having administered the test products in a suspension in a 6% gum base, the PBQ solution was injected. The mice were then observed ca. 5 mn. for the next five minutes.
% of analgesic activity as a function of
the dose expressed in mg/kg

Swiss mice = experiment: Oral toxicity (mortality) in the mouse, Table 1; type: in vivo; conditions: 14 days, 20160 min
Description: as §1, §2

[2] = system: number of escapes the animal made in 5 minutes; experiment: Escape test, Table 3; type: in vivo, mouse; conditions: 5 min, read-out: % of activity (variation of the number of escapes)
Source text: The products of the invention were always administered orally in 6% gum base.
The notation NS signifies that the difference between the results noted for the product and the results noted for the excipient alone is not significant at the threshold 0.05 according to the Student t Test.

[3] = system: ptosis induced by reserpine; experiment: Antagonism of ptosis induced by reserpine, Table 6; type: in vivo; conditions: po, read-out: % of inhibition of ptosis induced by reserpine
Source text: (§3) The psychotropic profile of the present invention products has been characterized with the animals in numerous tests some of whose results are shown hereinafter. The products of the invention were always administered orally in 6% gum base.
(§4) Certain tests made it possible to show antidepressive activities. These are tests of antagonism to the effects of reserpine, oxotremorine (according to Everett G. M. et al, Science, 1956, 124, 79 and Levy J. et al, Therapie 1965, 20, 265) and to despair (according to Porsolt P. D. et al, Eur. J. Pharmacol., 1978, 47, 379-91).
% of inhibition of ptosis induced by reserpine
as a function of the dose administered orally

[4] = system: trembling induced by oxotremorine; experiment: Antagonism of trembling induced by oxotremorine, Table 7; type: in vivo; conditions: oral, read-out: % of inhibition of trembling induced by oxotremorine
Source text: as §3, §4
% of inhibition of trembling induced by
oxotremorine as a function of the dose
administered expressed in mg/kg

[5] = 100 mg/kg, male Swiss mouse, PBQ, read-out: % of analgesic activity
[6] = 200 mg/kg, male Swiss mouse, PBQ, read-out: % of analgesic activity
[7] = 50 mg/kg, male Swiss mouse, PBQ
[8] = read-out: % of analgesic activity, 100 mg/kg, male Swiss mouse, PBQ
[9] = read-out: % of analgesic activity, 50 mg/kg, male Swiss mouse, PBQ

SMILES | mortality at 336 h ([1]; 500 mg/kg) | mortality at 336 h ([1]; 750 mg/kg) | % of mortality (Swiss mice; 250 mg/kg) | % of mortality (Swiss mice; 500 mg/kg) | mortality at 336 h ([1]; 1000 mg/kg) | mortality at 336 h ([1]; 1500 mg/kg) | mortality at 336 h ([1]; 2000 mg/kg) | inhibition in vivo at 100 mg/kg (phenylbenzoquinone (PBQ); [8]) | also measured
C(=Nc1cc2c(cc1CCN1CCCCC1)OCO2)c1cccs1 [COR 01 175, 6-(2-N-piperidinoethyl) N-(thienylidene-2)-1,3-benzodioxole-5-ylamine] | 10% | 10% |  |  |  |  |  |  | mortality at 336 h ([1]; 250 mg/kg): 0%; inhibition in vivo at 100 mg/kg (phenylbenzoquinone (PBQ); [5]): 13%; inhibition in vivo at 200 mg/kg (phenylbenzoquinone (PBQ); [6]): 71%
CN(C)CCc1cc2c(cc1N=Cc1cccs1)OCO2 [COR 01 163] |  |  | 70% | 100% |  |  |  |  | % of mortality (Swiss mice; 150 mg/kg): 25%; % of analgesic activity (phenylbenzoquinone (PBQ); [7]): 17.5%
CN(C)CCc1cc2c(cc1N=Cc1ccc(Cl)c(Cl)c1)OCO2 [COR 01 207] |  | 0% |  |  | 20% | 20% | 40% |  | 
CC(C)(C)NCCc1cc2c(cc1N=Cc1cccnc1)OCO2 [COR 01 195] |  |  |  |  | 0% | 20% | 30% | 24% | inhibition in vivo at 200 mg/kg (phenylbenzoquinone (PBQ); read-out: % of analgesic activity, 200 mg/kg, male Swiss mouse, PBQ): 31%; change in vivo at 3 mg/kg ([2]; Mus musculus, po): 54%; change in vivo at 5 mg/kg ([2]; Mus musculus, po): 53%; change in vivo at 50 mg/kg ([2]; Mus musculus, po): 19%; change in vivo at 100 mg/kg ([2]; Mus musculus, po): 28%; change in vivo at 50 mg/kg [3]: -22%; change in vivo at 100 mg/kg [3]: -22%
CN(C)CCc1cc2c(cc1N=Cc1ccc(Cl)cc1)OCO2 [COR 01 208] | 0% | 30% |  |  | 20% | 20% | 80% |  | 
C(=Nc1cc2c(cc1CCN1CCOCC1)OCO2)c1cccnc1 [COR 01 204] |  |  |  |  |  | 0% | 10% |  | change in vivo at 50 mg/kg ([4]; 50 mg/kg): -30%; change in vivo at 100 mg/kg ([4]; 100 mg/kg): -20%; change in vivo at 200 mg/kg ([4]; 200 mg/kg): -30%; inhibition in vivo at 50 mg/kg (phenylbenzoquinone (PBQ); 50 mg/kg, male Swiss mouse, PBQ, read-out: % of analgesic activity): 0%; inhibition in vivo at 100 mg/kg (phenylbenzoquinone (PBQ); [5]): 45%; inhibition in vivo at 200 mg/kg (phenylbenzoquinone (PBQ); [6]): 42%; change in vivo at 5 mg/kg ([2]; 5 mg/kg, oral, mouse, 5 minutes): -28%; change in vivo at 25 mg/kg ([2]; 25 mg/kg, oral, mouse, 5 minutes): -31%; change in vivo at 50 mg/kg ([2]; 50 mg/kg, oral, mouse, 5 minutes): -24%; change in vivo at 75 mg/kg ([2]; 75 mg/kg, oral, mouse, 5 minutes): -20%; change in vivo at 100 mg/kg ([2]; 100 mg/kg, oral, mouse, 5 minutes): -15%; change in vivo at 200 mg/kg ([2]; 200 mg/kg, oral, mouse, 5 minutes): -24%
CN(C)CCc1cc2c(cc1N=Cc1cccs1)OCO2 [COR 01 179] |  |  | 10% | 90% |  |  |  |  | 
CN(C)CCc1cc2c(cc1N=Cc1ccc(Br)s1)OCO2 [COR 01 181] | 30% |  |  |  |  |  |  | 42% | mortality at 336 h ([1]; 250 mg/kg): 0%; inhibition in vivo at 50 mg/kg (phenylbenzoquinone (PBQ); [9]): 25%
Cc1ccc(C=Nc2cc3c(cc2CCN(C)C)OCO3)s1 [COR 01 169] |  | 50% |  |  | 20% | 80% |  | 43% | inhibition in vivo at 50 mg/kg (phenylbenzoquinone (PBQ); [9]): 7%
CN(C)CCc1cc2c(cc1N=Cc1cccs1)OCO2 [COR 01 171] |  |  | 80% | 90% |  |  |  |  | % of mortality (Swiss mice; 150 mg/kg): 20%; % of analgesic activity (phenylbenzoquinone (PBQ); [7]): 51%
